Our source for the IC50 values is patent publication US12234232B2, “Aromatic heterocyclic compound with kinase inhibitory activity” (SHANGHAI ENNOVABIO PHARMACEUTICALS CO., LTD., priority 2018, dated 2025).

For assay [1], the target named is T1, JAK2 (Homo sapiens, UniProt O60674). The assay is described as follows: In vitro JAK2 kinase activity assay (HTRF kinEASE TK). The assay is classed as biochemical. Further details: purchased Carna Biosciences. To be noted: 2.7 μM ATP, 25 minutes, room temperature; read-out: IC50 JAK2 (enzyme activity assay). The protocol: (§1) Recombinant human JAK1 protein was purchased from Thermo Fisher. JAK2 and JAK3 proteins were purchased from Carna Biosciences. HTRF kinEASE TK kit was purchased from Cisbio Bioassays. BioTek microplate reader Synergy Neo 2 was used to read the plate.
T1 sequence (O60674 whole entry): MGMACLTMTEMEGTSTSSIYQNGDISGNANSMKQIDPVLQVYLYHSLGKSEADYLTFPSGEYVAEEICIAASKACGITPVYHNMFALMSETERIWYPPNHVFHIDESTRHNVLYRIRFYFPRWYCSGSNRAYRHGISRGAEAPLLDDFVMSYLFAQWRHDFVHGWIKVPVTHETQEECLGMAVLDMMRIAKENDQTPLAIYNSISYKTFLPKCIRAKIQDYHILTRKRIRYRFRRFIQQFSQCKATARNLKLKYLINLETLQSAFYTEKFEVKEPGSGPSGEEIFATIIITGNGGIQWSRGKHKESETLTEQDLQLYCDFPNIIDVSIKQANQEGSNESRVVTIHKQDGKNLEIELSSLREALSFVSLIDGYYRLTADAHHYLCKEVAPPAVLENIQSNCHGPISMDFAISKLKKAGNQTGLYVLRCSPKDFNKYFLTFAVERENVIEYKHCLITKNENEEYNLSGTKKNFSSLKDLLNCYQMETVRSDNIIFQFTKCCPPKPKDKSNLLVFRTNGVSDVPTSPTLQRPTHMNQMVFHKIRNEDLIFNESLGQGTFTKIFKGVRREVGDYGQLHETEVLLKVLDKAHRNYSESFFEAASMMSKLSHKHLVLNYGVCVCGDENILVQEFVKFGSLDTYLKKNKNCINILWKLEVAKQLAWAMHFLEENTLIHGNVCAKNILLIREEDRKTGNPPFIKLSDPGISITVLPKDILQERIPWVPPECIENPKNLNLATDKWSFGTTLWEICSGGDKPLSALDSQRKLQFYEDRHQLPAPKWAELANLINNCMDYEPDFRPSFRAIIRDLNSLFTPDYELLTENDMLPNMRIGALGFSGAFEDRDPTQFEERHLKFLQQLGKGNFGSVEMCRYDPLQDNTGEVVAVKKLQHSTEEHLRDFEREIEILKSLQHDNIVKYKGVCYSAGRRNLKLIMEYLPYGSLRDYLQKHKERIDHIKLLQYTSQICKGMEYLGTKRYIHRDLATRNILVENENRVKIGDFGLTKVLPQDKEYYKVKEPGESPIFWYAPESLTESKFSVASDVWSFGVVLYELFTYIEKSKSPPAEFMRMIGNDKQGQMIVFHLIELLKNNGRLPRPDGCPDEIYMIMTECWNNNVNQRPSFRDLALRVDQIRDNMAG
(§2) The test compounds were of 4-fold serial dilution, and the final concentration ranged from 10 μM to 0.04 nM in duplicates for each concentration. The concentration of DMSO in the reaction system was 1%.
The reaction included 0.001 ng/μl JAK 2 protein kinase, 1 μM TK Substrate-biotin peptide substrate, 2.7 μM ATP, 1× enzymatic buffer, 5 mM MgCl2, and 1 mM DTT. The detection plate was White Proxiplate 384-Plus plate (PerkinElmer), and the mixture (10 μl) was reacted at room temperature for 25 minutes.
(§3) Reaction detection: 10 μl of detection reagent was added to the reaction plate containing final concentration of 0.125 μM of SA-XL665 and 5 μl 1×TK-Antibody. The mixture was incubated overnight at room temperature. The plate was read using Synergy Neo 2.
(§4) Data analysis: 665/620 Ratio was converted into inhibition rate (%) through the following formula: inhibition rate (%)=(Ratiomax−Ratiotest)/(Ratiomax−Ratiomin)×100%. Ratiomax is a positive control without detection compound, Ratiomin is a negative control without detection compound and kinase, Ratiotest is the detection value of each concentration of different compounds. 4 parameter curve fitting was performed to measure the IC50 (nM) values. The details are shown in, Table 1.

Assay [2] has as its target T2, JAK1 (Homo sapiens, UniProt P23458). Briefly: Cellular JAK1 activity assay: IL-6-stimulated STAT3 phosphorylation in TF-1 cells. It counts as cell-based. Further details: endogenous in cells; host or cells: TF-1 cells (ATCC). The following applies: IL-6 (30 ng/mL), pSTAT3, read-out: IC50 Cell JAK1. Here is the method: (§5) In TF-1 cells, IL-6 stimulation leads to phosphorylation of STAT3 through JAK1, while EPO stimulants phosphorylation of STAT5 via JAK2.
(§6) TF-1 cells were obtained from American Type Culture Collection (ATCC). TF-1 cells were starved overnight (cell density was 100,000 cells/well at plating) in OptiMEM medium without phenol red containing 0.5% fetal bovine serum (FBS), 0.1 mM non-essential amino acids (NEAA), 1 mM sodium pyruvate at 37° C. The compound was serially diluted in DMSO, added to TF-1 cells and incubated at 37° C. for 20 minutes. The final concentration of DMSO was 0.2%. Then, human recombinant cytokine IL-6 (30 ng/mL) or EPO (10 U/mL) was added to the wells containing TF-1 cells. After the cell plate was incubated for 30 minutes, cells were lysed, and the phosphorylation of STAT3 (IL-6) or STAT5 (EPO) in the cell lysate (pSTAT3/total STAT3 Elisa Kit: CST #7300C/CST #7305C; pSTAT5 and total STAT5 Elisa Kit: Abcam #ab205715) was measured. The IC50 value was determined as the concentration of the compound required to inhibit STAT phosphorylation by 50% relative to the measured DMSO control.

For assay [3], the target named is T1, JAK2. Briefly: Cellular JAK2 activity assay: EPO-stimulated STAT5 phosphorylation in TF-1 cells. To be noted: EPO (10 U/mL), pSTAT5, read-out: IC50 Cell JAK2. Further details: endogenous in cells; host or cells: TF-1 cells (ATCC). The assay is classed as cell-based. Here is the method:
as §5, §6

The target of assay [4] is T3, JAK3 protein (Homo sapiens, UniProt P52333).
T3 construct: purchased Carna Biosciences
T3 sequence (P52333 1-1124): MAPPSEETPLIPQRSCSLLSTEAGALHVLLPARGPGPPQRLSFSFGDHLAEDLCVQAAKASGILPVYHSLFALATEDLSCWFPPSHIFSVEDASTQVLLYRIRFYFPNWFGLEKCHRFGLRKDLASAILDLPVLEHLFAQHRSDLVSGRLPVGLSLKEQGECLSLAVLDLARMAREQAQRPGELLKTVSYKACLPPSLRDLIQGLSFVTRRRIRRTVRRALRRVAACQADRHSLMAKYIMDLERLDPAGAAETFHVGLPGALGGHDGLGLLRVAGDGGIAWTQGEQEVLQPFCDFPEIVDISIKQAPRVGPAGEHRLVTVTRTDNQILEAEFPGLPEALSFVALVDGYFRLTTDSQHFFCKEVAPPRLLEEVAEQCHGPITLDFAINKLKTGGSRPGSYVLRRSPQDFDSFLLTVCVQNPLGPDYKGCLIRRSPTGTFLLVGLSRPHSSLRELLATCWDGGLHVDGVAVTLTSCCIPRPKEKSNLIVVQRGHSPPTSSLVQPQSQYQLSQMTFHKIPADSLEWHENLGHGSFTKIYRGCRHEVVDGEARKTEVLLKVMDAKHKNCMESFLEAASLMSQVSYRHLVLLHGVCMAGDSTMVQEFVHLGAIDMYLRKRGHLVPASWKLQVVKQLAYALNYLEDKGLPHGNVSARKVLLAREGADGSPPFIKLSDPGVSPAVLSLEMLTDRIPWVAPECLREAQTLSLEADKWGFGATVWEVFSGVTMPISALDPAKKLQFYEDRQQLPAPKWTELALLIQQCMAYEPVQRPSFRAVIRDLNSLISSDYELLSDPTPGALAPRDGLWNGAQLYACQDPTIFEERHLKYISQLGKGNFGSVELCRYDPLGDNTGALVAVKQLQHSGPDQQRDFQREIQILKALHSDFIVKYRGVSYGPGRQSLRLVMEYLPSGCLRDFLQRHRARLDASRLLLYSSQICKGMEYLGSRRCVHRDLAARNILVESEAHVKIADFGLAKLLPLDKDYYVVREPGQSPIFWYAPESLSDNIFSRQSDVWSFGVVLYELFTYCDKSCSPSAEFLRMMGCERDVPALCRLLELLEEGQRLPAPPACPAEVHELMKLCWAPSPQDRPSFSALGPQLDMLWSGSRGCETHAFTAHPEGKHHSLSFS
The assay is described as follows: In vitro JAK3 kinase activity assay (HTRF kinEASE TK). The following applies: 0.75 μM ATP, 25 minutes, room temperature; read-out: IC50 JAK3 (enzyme activity assay). The assay is classed as biochemical. The protocol:
as §1, §2
The reaction included […] JAK 3 protein kinase, 1 μM TK Substrate-biotin peptide substrate, 0.75 μM ATP, 1× enzymatic buffer, 5 mM MgCl2, and 1 mM DTT. The detection plate was White Proxiplate 384-Plus plate (PerkinElmer), and the mixture (10 μl) was reacted at room temperature for 25 minutes.
as §3, §4
For orientation: In TR-FRET formats the signal depends on donor and acceptor labels being close together.

Assay [5] concerns the target T2, JAK1. The assay is described as follows: In vitro JAK1 kinase activity assay (HTRF kinEASE TK). On the set-up: purchased Thermo Fisher. To be noted: 1.1 μM ATP, 60 minutes, room temperature; read-out: IC50 JAK1 (enzyme activity assay). It counts as biochemical. The protocol:
as §1, §2
The reaction included 0.5 ng/μl JAK 1 protein kinase, 1 μM TK Substrate-biotin peptide substrate, 1.1 μM ATP, 1× enzymatic buffer, 5 mM MgCl2, 1 mM MnCl2, 1 mM DTT, and 2.5 nM SEB. The detection plate was White Proxiplate 384-Plus plate (PerkinElmer), and the mixture (10 μl) was reacted at room temperature for 60 minutes.
as §3, §4

By IC50 is commonly meant the concentration that gives 50% inhibition.

Bounds are passed on as bounds.

T2 sequence (P23458 whole entry): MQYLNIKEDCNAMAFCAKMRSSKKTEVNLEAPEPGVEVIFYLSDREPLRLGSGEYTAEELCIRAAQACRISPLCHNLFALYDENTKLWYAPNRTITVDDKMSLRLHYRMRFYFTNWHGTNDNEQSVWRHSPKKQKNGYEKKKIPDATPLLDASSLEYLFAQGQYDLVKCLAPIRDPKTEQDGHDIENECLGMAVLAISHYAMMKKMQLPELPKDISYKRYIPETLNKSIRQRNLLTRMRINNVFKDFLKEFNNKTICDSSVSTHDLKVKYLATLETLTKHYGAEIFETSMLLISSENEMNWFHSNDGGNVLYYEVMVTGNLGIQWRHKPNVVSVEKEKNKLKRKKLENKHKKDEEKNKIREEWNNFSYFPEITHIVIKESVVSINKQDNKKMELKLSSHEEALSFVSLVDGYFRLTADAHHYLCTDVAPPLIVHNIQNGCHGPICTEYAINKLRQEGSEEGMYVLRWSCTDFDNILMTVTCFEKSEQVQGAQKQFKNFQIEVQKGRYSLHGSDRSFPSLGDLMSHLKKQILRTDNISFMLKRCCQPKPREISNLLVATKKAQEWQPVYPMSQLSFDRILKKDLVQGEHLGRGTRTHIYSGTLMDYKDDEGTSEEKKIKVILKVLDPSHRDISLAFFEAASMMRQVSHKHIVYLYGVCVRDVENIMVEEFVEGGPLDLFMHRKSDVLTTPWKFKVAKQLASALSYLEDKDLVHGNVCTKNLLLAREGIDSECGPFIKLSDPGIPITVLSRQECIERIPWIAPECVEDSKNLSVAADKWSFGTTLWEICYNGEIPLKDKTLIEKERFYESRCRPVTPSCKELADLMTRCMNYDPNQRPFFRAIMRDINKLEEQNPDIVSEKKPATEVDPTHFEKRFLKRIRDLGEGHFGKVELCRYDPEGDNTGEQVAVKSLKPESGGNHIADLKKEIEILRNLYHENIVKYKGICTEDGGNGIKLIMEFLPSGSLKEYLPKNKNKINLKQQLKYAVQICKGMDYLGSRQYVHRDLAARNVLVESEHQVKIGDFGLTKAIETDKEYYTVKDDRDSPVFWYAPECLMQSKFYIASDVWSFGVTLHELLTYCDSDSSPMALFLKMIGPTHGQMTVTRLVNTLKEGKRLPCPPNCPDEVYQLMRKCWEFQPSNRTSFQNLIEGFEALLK

On to `CCC(C(=O)Nc1nccc2c(-c3nc(Nc4cn(C)nc4OC)ncc3C)c[nH]c12)N1CCC(O)C1` (stereo not drawn) [Example 8], for which the concentration for half-maximal inhibition (IC50) was less than 100 nM in assay [1]; 100 to 1000 nM in assay [2]; more than 20000 nM in assay [3]; less than 500 nM in assay [4]; 5 to 50 nM in assay [5].
Take `CCC(C(=O)Nc1nccc2c(-c3nc(Nc4cn(C)nc4OC)ncc3C)c[nH]c12)N1CCC(N(C)C)CC1` (stereo not drawn) [Example 9]: the IC50 in assay [1] was less than 100 nM; in assay [2] it was 100 to 1000 nM; in assay [3], less than 10000 nM; in assay [4] it was less than 500 nM; in assay [5], 5 to 50 nM.
Taken in the same sequence, the figures for `CCC(C(=O)Nc1nccc2c(-c3nc(Nc4cn(C)nc4OC)ncc3C)c[nH]c12)N1CC(C)N(C)C(C)C1` (stereo not drawn) [Example 10] were 100 to 10000 nM, more than 1000 nM, more than 20000 nM, 500 to 10000 nM and 5 to 50 nM.
As to `COc1nn(C)cc1Nc1ncc(C)c(-c2c[nH]c3c(NC(N)=O)nccc23)n1` [Example 12], the IC50 is less than 100 nM in assay [1]; less than 100 nM in assay [2]; less than 10000 nM in assay [3]; less than 500 nM in assay [4]; less than 5 nM in assay [5].
Consider `CCC(C(=O)Nc1nccc2c(-c3nc(Nc4cccc(S(C)(=O)=O)c4F)ncc3C)c[nH]c12)N1CCN(C)CC1` (stereo not drawn) [Example 19, N-(3-(2-((2-Fluoro-3-(methylsulfonyl)phenyl)amino)-5-methylpyrimidin-4-yl)-1H-pyrrolo[2,3-c]pyridin-7-yl)-2-(4-methylpiperazin-1-yl)butanamide], for which the half-inhibitory concentration (IC50) in assay [1] was 100 to 10000 nM; in assay [2], 100 to 1000 nM; in assay [3], more than 20000 nM; in assay [4], 500 to 10000 nM; in assay [5], less than 5 nM.
For the compound `CCC(C(=O)Nc1nccc2c(-c3nc(Nc4cccc(NS(C)(=O)=O)c4F)ncc3C)c[nH]c12)N1CCN(C)CC1` (stereo not drawn) [Example 22, N-(3-(2-((2-Fluoro-3-(methylsulfonylamino)phenyl)amino)-5-methylpyrimidin-4-yl)-1H-pyrrolo[2,3-c]pyridin-7-yl)-2-(4-methylpiperazin-1-yl)butanamide], the IC50 in assay [1] is less than 100 nM; in assay [2], 100 to 1000 nM; in assay [3] it was less than 10000 nM; in assay [4] it was 500 to 10000 nM; in assay [5] it was 5 to 50 nM.
In the case of `CCC(C(=O)Nc1nccc2c(-c3nc(Nc4cccc(S(C)(=O)=O)c4F)ncc3C)c[nH]c12)N1CC2CCC(C1)N2C` (stereo not drawn) [Example 23, N-(3-(2-((2-Fluoro-3-(methylsulfonyl)phenyl)amino)-5-methylpyrimidin-4-yl)-1H-pyrrolo[2,3-c]pyridin-7-yl)-2-(8-methyl-3,8-diazabicyclo[3.2.1]octane-3-yl)butanamide], the IC50 fell in the range of 100 to 10000 nM in assay [1]; 100 to 1000 nM in assay [2]; 10000 to 20000 nM in assay [3]; 500 to 10000 nM in assay [4]; 5 to 50 nM in assay [5].
As to `CCC(C(=O)Nc1nccc2c(-c3nc(Nc4cccc(S(C)(=O)=O)c4F)ncc3C)c[nH]c12)N1CC2(CCN(C)CC2)C1` (stereo not drawn) [Example 24, N-(3-(2-((2-Fluoro-3-(methylsulfonyl)phenyl)amino)-5-methylpyrimidin-4-yl)-1H-pyrrolo[2,3-c]pyridin-7-yl)-2-(7-methyl-2,7-diazaspiro[3.5]nonane-2-yl)butanamide], the IC50 in assay [1] is 100 to 10000 nM; in assay [2], 100 to 1000 nM; in assay [3], more than 20000 nM; in assay [4] it was 500 to 10000 nM; in assay [5] it was 5 to 50 nM.
For the compound `CCC(C(=O)Nc1nccc2c(-c3nc(Nc4cccc(S(C)(=O)=O)c4F)ncc3F)c[nH]c12)N1CCN(C)CC1` (stereo not drawn) [Example 27, N-(3-(5-Fluoro-2-((2-fluoro-3-(methylsulfonyl)phenyl)amino)pyrimidin-4-yl)-1H-pyrrolo[2,3-c]pyridin-7-yl)-2-(4-methylpiperazin-1-yl) butanamide], the 50% inhibitory concentration (IC50) is 100 to 10000 nM in assay [1]; 100 to 1000 nM in assay [2]; more than 20000 nM in assay [3]; 500 to 10000 nM in assay [4]; less than 5 nM in assay [5].
Regarding `CCC(C(=O)Nc1nccc2c(-c3nc(Nc4cccc(S(=O)(=O)CC)c4F)ncc3C)c[nH]c12)N1CCN(C)CC1` (stereo not drawn) [Example 28], the half-maximal inhibitory concentration (IC50) in assay [1] was less than 100 nM; in assay [2], 100 to 1000 nM; in assay [3], 10000 to 20000 nM; in assay [4] it was 500 to 10000 nM; in assay [5], less than 5 nM.
Turning to `Cc1cnc(Nc2cccc(S(C)(=O)=O)c2F)nc1-c1c[nH]c2c(NC(=O)NC(C)C)nccc12` [Example 30, 1-(3-(2-((2-Fluoro-3-(methylsulfonyl)phenyl)amino)-5-methylpyrimidin-4-yl)-1H-pyrrolo[2,3-c]pyridin-7-yl)-3-isopropylurea], the 50% inhibitory concentration (IC50) is 100 to 10000 nM in assay [1]; less than 100 nM in assay [2]; 10000 to 20000 nM in assay [3]; less than 500 nM in assay [4]; 5 to 50 nM in assay [5].
For `COCCNC(=O)Nc1nccc2c(-c3nc(Nc4cccc(S(C)(=O)=O)c4F)ncc3C)c[nH]c12` [Example 32], the 50% inhibitory concentration (IC50) was less than 100 nM in assay [1]; more than 1000 nM in assay [2]; more than 20000 nM in assay [3]; less than 500 nM in assay [4]; less than 5 nM in assay [5].
